Measurements reported in patent US10093630B2, “Pyrazole compounds and methods of making and using same” (ABIDE THERAPEUTICS, INC., priority 2014, dated 2018).
Like-named read-outs stand apart in the source and are kept apart here.

How the values were obtained:
Assay in all cases: In vitro competitive activity-based protein profiling (gel-based, FP-Rh or HT-01 probe)
Format in all cases: biochemical
[1] = target: T1, ABHD6 (Mus musculus, UniProt Q8R2Y0); conditions: for inhibition at 1 µM: 1 μM inhibitor, read-out: % Inhibition at 1 μM, C = ABHD6; for inhibition at 10 µM: 10 μM inhibitor, read-out: % Inhibition at 10 μM, C = ABHD6; for IC50: mouse brain membrane fraction or cell lysates, 30 min preincubation at 37° C., read-out: Mouse (IC50 value, nM) ABHD6
T1 construct: Proteomes (mouse brain membrane fraction or cell lysates); from tissue; host or cells: mouse brain membrane fraction (or cell lysates, not specified)
T1 sequence (Q8R2Y0 1-336): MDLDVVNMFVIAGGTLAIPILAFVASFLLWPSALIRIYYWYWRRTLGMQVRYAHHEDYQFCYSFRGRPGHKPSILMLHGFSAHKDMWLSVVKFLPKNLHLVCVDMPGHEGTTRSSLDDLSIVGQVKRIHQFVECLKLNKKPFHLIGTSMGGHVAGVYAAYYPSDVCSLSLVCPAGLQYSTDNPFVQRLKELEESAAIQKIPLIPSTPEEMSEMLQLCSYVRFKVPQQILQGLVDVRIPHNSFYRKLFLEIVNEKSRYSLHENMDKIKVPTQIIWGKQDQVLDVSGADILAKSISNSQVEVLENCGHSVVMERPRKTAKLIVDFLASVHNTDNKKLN
How it was run: (§1)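 Mouse brain membrane or cell lysate proteomes (1.0 mg/mL) preincubated with inhibitors 30 min at 37° C, then labelled with FP-Rh or HT-01 for 30 min at 37° C. After SDS-PAGE, activity quantified from fluorescent band intensity.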

[2] = target: T2, FAAH (Mus musculus, UniProt O08914); conditions: for inhibition at 1 µM: 1 μM inhibitor, read-out: % Inhibition at 1 μM, B = FAAH; for inhibition at 10 µM: 10 μM inhibitor, read-out: % Inhibition at 10 μM, B = FAAH; for IC50: mouse brain membrane fraction or cell lysates, 30 min preincubation at 37° C., read-out: Mouse (IC50 value, nM) FAAH
T2 construct: Proteomes (mouse brain membrane fraction or cell lysates); from tissue; host or cells: mouse brain membrane fraction (or cell lysates, not specified)
T2 sequence (O08914 1-579): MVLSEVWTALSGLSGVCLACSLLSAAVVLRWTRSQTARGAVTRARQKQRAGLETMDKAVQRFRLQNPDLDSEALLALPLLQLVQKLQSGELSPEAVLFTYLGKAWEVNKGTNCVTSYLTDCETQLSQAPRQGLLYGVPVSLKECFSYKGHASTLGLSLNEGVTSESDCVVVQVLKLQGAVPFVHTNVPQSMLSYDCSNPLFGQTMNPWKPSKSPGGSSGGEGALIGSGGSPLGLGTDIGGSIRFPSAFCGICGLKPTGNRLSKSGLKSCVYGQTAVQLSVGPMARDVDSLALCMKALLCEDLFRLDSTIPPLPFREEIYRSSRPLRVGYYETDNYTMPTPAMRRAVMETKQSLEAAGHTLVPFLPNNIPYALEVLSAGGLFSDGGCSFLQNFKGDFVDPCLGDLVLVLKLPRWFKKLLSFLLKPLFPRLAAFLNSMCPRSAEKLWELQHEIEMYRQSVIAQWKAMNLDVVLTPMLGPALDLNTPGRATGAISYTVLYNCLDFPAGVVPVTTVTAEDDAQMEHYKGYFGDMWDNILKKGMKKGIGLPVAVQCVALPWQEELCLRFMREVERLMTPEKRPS
How it was run: as §1

[3] = target: T3, MAGL (Mus musculus, UniProt O35678); conditions: for inhibition at 1 µM: 1 μM inhibitor; for inhibition at 10 µM: 10 μM inhibitor; for IC50: mouse brain membrane fraction or cell lysates, 30 min preincubation at 37° C., read-out: Mouse (IC50 value, nM) MAGL
T3 construct: Proteomes (mouse brain membrane fraction or cell lysates); from tissue; host or cells: mouse brain membrane fraction (or cell lysates, not specified)
T3 sequence (O35678 1-303): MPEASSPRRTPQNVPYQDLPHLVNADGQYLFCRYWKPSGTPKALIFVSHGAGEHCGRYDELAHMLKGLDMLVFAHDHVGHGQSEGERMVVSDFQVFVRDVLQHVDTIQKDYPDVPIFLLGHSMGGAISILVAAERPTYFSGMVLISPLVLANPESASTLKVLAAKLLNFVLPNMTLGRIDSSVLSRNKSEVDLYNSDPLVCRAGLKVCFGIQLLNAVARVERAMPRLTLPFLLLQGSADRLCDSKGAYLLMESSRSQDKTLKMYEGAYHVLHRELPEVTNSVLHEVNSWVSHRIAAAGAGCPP
How it was run: as §1

[4] = target: T4, PLA2G7 (Mus musculus, UniProt Q60963); conditions: for inhibition at 1 µM: 1 μM inhibitor, read-out: % Inhibition at 1 μM, D = PLA2G7; for inhibition at 10 µM: 10 μM inhibitor, read-out: % Inhibition at 10 μM, D = PLA2G7
T4 construct: Proteomes (mouse brain membrane fraction or cell lysates); from tissue; host or cells: mouse brain membrane fraction (or cell lysates, not specified)
T4 sequence (Q60963 22-440): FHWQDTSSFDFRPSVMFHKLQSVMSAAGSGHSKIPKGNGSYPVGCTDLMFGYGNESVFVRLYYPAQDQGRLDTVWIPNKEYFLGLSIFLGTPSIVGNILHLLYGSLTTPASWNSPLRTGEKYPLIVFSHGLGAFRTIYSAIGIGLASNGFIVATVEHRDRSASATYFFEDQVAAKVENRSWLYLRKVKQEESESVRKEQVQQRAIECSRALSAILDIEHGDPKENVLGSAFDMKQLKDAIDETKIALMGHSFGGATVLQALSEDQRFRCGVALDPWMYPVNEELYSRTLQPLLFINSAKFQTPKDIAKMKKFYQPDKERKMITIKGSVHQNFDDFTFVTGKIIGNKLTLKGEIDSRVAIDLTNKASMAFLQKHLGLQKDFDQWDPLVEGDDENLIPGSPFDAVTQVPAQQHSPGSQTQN
How it was run: as §1

Compound | inhibition at 1 µM [1] [%] | inhibition at 10 µM [1] [%] | inhibition at 1 µM [2] [%] | inhibition at 10 µM [2] [%] | inhibition at 1 µM [3] [%] | inhibition at 10 µM [3] [%] | inhibition at 1 µM [4] [%] | inhibition at 10 µM [4] [%] | IC50 [3] [nM] | IC50 [1] [nM] | IC50 [2] [nM] | inhibition at 1 µM ([1]; gel-based competitive ABPP) [%] | inhibition at 10 µM ([1]; gel-based competitive ABPP) [%] | inhibition at 1 µM ([2]; gel-based competitive ABPP) [%] | inhibition at 10 µM ([2]; gel-based competitive ABPP) [%] | inhibition at 1 µM ([3]; gel-based competitive ABPP) [%] | inhibition at 10 µM ([3]; gel-based competitive ABPP) [%] | inhibition at 1 µM ([4]; gel-based competitive ABPP) [%] | inhibition at 10 µM ([4]; gel-based competitive ABPP) [%] | IC50 ([4]; mouse brain membrane fraction or cell lysates, 30 min preincubation at 37° C.) [nM]
CN1CCN(C(=O)n2cc(C(F)(F)F)cn2)CC1 [Example 151, (4-Methylpiperazin-1-yl)(4-(trifluoromethyl)-1H-pyrazol-1-yl)methanone] | > 75 | > 75 | > 75 | > 75 | < 25 | > 75 | 25 to 75 | > 75 |  |  |  |  |  |  |  |  |  |  |  | 
CC(=O)N1CCN(C(=O)n2cc(C)cn2)CC1 [Example 161, 1-(4-(4-Methyl-1H-pyrazole-1-carbonyl)piperazin-1-yl)ethanone] | < 25 | < 25 | < 25 | < 25 | < 25 | < 25 | < 25 | > 75 |  |  |  |  |  |  |  |  |  |  |  | 
O=C(c1cnn(C(=O)N2CCN(Cc3ccncc3)CC2)c1)N1CCC1 [Example 87, Azetidin-1-yl(1-(4-(pyridin-4-ylmethyl)piperazine-1-carbonyl)-1H-pyrazol-4-yl)methanone] | < 25 | > 75 | < 25 | > 75 | < 25 | < 25 | < 25 | > 75 |  |  |  |  |  |  |  |  |  |  |  | 
COc1cc(-c2ccccc2)ccc1CN1CCN(C(=O)n2cc(C#N)cn2)CC1 [Example 145, 1-(4-((3-Methoxybiphenyl-4-yl)methyl)piperazine-1-carbonyl)-1H-pyrazole-4-carbonitrile] | > 75 | > 75 | > 75 | > 75 | > 75 | > 75 | > 75 | > 75 |  |  |  |  |  |  |  |  |  |  |  | 
O=C(N1CCN(c2ccc(Cl)cc2)CC1)n1cc(C(F)(F)F)cn1 [Example 229, (4-(4-Chlorophenyl)piperazin-1-yl)(4-(trifluoromethyl)-1H-pyrazol-1-yl)methanone] | > 75 | > 75 | > 75 | > 75 | > 75 | > 75 | > 75 | > 75 |  |  |  |  |  |  |  |  |  |  |  | 
O=C(c1cnn(C(=O)N2CCN(Cc3ccncn3)CC2)c1)N1CCCC1 [Example 82, (4-(Pyrimidin-4-ylmethyl)piperazin-1-yl)(4-(pyrrolidine-1-carbonyl)-1H-pyrazol-1-yl)methanone] | < 25 | > 75 |  | 25 to 75 |  | < 25 | < 25 | > 75 |  |  |  |  |  |  |  |  |  |  |  | 
O=C(N1CCN(Cc2ccc3ccccc3c2)CC1)n1cccn1 [Example 10, (4-(naphthalen-2-ylmethyl)piperazin-1-yl)(1H-pyrazol-1-yl)methanone] | > 75 | > 75 | > 75 | > 75 | > 75 | > 75 | < 25 | < 25 | < 100 |  |  |  |  |  |  |  |  |  |  | 
O=C(c1cnn(C(=O)N2CCN(Cc3cncnc3)CC2)c1)N1CCCCC1 [Example 75, Piperidin-1-yl(1-(4-(pyrimidin-5-ylmethyl)piperazine-1-carbonyl)-1H-pyrazol-4-yl)methanone] | < 25 | > 75 | < 25 | < 25 | < 25 | < 25 | > 75 | > 75 |  |  |  |  |  |  |  |  |  |  |  | 
Cc1cc(-c2ccccc2)ccc1CN1CCN(C(=O)n2cc(C(=O)N3CCCCC3)cn2)CC1 [Example 76, (4-((3-Methyl-[1,1′-biphenyl]-4-yl)methyl)piperazin-1-yl)(4-(piperidine-1-carbonyl)-1H-pyrazol-1-yl)methanone] | > 75 | > 75 | > 75 | > 75 | > 75 | > 75 | > 75 | > 75 | 100 to 1000 | 100 to 1000 | < 100 |  |  |  |  |  |  |  |  | 
O=C(c1ccccc1)N1CCN(C(=O)n2cc(Cl)cn2)CC1 [Example 187, (4-Benzoylpiperazin-1-yl)(4-chloro-1H-pyrazol-1-yl)methanone] | < 25 | 25 to 75 | < 25 | > 75 | 25 to 75 | > 75 | > 75 | > 75 |  |  |  |  |  |  |  |  |  |  |  | 
CS(=O)(=O)N1CCN(C(=O)n2cc(Cl)cn2)CC1 [Example 184, (4-Chloro-1H-pyrazol-1-yl)(4-(methylsulfonyl)piperazin-1-yl)methanone] | > 75 | > 75 | < 25 | 25 to 75 | < 25 | < 25 | > 75 | > 75 |  |  |  |  |  |  |  |  |  |  |  | 
CCN(Cc1cccc(N2CCOCC2)c1)C(=O)n1cc(Cl)cn1 [Example 266, 4-Chloro-N-ethyl-N-(3-morpholinobenzyl)-1H-pyrazole-1-carboxamide] |  |  |  |  |  |  |  |  | > 1000 | > 1000 | 100 to 1000 | < 25 | > 75 | > 75 | > 75 | < 25 | > 75 | < 25 | < 25 | > 1000
Cc1cnn(C(=O)NCCCCc2ccccc2)c1 [Example 35, 4-Methyl-N-(4-phenylbutyl)-1H-pyrazole-1-carboxamide] |  | < 25 |  | < 25 |  | < 25 |  | < 25 |  |  |  |  |  |  |  |  |  |  |  | 
Cc1cnn(C(=O)N2CCCN(Cc3cccc(Oc4ccccc4)c3)CC2)c1 [Example 298, (4-Methyl-1H-pyrazol-1-yl)(4-(3-phenoxybenzyl)-1,4-diazepan-1-yl)methanone] |  |  |  |  |  |  |  |  |  |  |  | < 25 |  | < 25 |  | > 75 |  | < 25 |  | 
